Series [1] concerns the target T1, recombinant human plasma kallikrein (Human PKal) (Homo sapiens, UniProt P03952).
T1 construct: Gly20-Ala638 derived from NS0- with a 60-His appendage at the C-terminus; His tag ('60-His' [sic]) (C); purchased R&D Systems 2497-SE; host or cells: mouse myeloma cell line NS0
Kind of series: Inhibitory effect of test compounds on plasma kallikrein (PKal), fluorogenic substrate Z-FR-AMC. It is filed as biochemical. The settings on record: 10 µM Z-FR-AMC, 10 min pre-incubation. The procedure: 1. PKal reaction buffer: 25 mM Tris-HCl (trometamol-HCl), pH 8.0, 100 mM NaCl, […], 0.01 % Brij35 (polyoxyethylene lauryl ether), and 1 % DMSO (final concentration).
2. Enzyme: PKal (R&D Systems Cat# 2497-SE), recombinant human plasma kallikrein expressed in a mouse myeloma cell line, Gly20-Ala638 derived from NS0- with a 60-His appendage at the C-terminus, MW=70 kDa. Activation of the enzyme: (1) rhPKal was diluted to 200 µg/mL activation buffer (100 mM Tris, 10 mM CaCl2, 150 mM NaCl, pH 7.5 (TCN)); (2) thermolysin was diluted to 20 µg/mL activation buffer; (3) rhPKal (200 µg/mL) and thermolysin (20 µg/mL) were mixed in equal volumes; (4) the mixture was incubated at 37° C. for 30 min; (5) then the reactions was stopped with 50 µM EDTA (ethylenediaminetetraacetic acid).
3. Substrate (Enzo Cat# P-139): 10 µM Z-FR-AMC (AMC: 7-amino-4-methylcoumarin).
4. Detection: EnVision (PE), Ex/Em 355/460 nm.
5. Reaction process: (1) The specified enzymes and substrates were prepared in freshly prepared activation buffer; (2) the enzyme solution was injected into the reaction hole; (3) the DMSO solution of the test compound was injected into the reaction mixture, and controlled within the nanoliter range using acoustic technology (Echo 550, LabCyte Inc. Sunnyvale, CA); (4) after 10 min of pre-incubation, the substrate solution was injected into the reaction hole to start the reaction; (5) the activity of the enzyme could be indicated by the increase of the fluorescence signal of the fluorescent labeled peptide substrate, which was monitored every 5 min and lasted for 120 min at room temperature; (6) data analysis: the slope* (fluorescence signal/time) of the straight line was measured, then the slope could be calculated by excel and the curve could be fitted by Prism software.

A short description of series [2]: Pharmacokinetic test in rats after intravenous and intragastric administration (plasma, LC-MS/MS). It is filed as in vivo. The settings on record: male, SD, rat; for bioavailability: read-out: Bioavailability F; for AUC(0-inf): read-out: Curve area (o-inf) AUC0-inf; for AUC(0-t): read-out: Curve area (o-t) AUC0-last; for half-life: read-out: Half-life T½ (converted); for Tmax: read-out: Peak time Tmax; for Cmax: read-out: Plasma drug concentration Cmax; for Vd: read-out: Apparent volume of distribution Vdss; for clearance: read-out: Clearance rate Cl. The procedure: Male SD rats were used as test animals, and LC-MS/MS method was used to determine the drug concentrations in plasma of rats at different times after intravenous and intragastric administration of test compounds. The pharmacokinetic behaviors of the compounds in rats were studied and the pharmacokinetic characteristics were evaluated.
2.2 Test animals: 28 healthy adult male SD rats were divided into 14 groups with 2 rats in each group. Animals were purchased from Beijing Vital River Laboratory Animal Technology Co., Ltd.
An appropriate amount of sample was weighed, and an appropriate amount of DMSO, polyoxyethylene castor oil and sterile water for injection were added in sequence according to the volume ratio of 10:10:80, then the mixture was stirred and sonicated to reach a clear state of 0.5 mg/mL for intravenous administration.
An appropriate amount of sample was weighed, and an appropriate amount of DMSO, polyoxyethylene castor oil and sterile water for injection were added in sequence according to the volume ratio of 10:10:80, then the mixture was stirred and sonicated to reach a clear or suspension state of 0.4 mg/mL for intragastric administration.
An appropriate amount of sample was weighed, and an appropriate amount of DMSO, polyoxyethylene castor oil and sterile water for injection were added in sequence according to the volume ratio of 10:10:80, then the mixture was stirred and sonicated to reach a clear state of 3 mg/mL for intravenous administration.
2.4 Administration: 28 male SD rats were divided into 14 groups, after fasting for one night, the intravenous administration group was administered with an administration volume of 2 mL/kg and a dose of 1 mg/kg; the intragastric administration group 1 was administered with an administration volume of 5 mL/kg and a dose of 2 mg/kg. The intragastric administration group 2 was administered with an administration volume of 10 mL/kg and a dose of 30 mg/kg.
After the compound was administered intravenously to male SD rats, 40 µL of blood was collected at 0.0833, 0.25, 0.5, 1, 2, 4, 8 and 24 hours, respectively, and placed in tubes containing 2 µL of EDTA-K2. After the compound was administered in the intragastric administration group, 40 µL of blood was collected at 0.25, 0.5, 1, 2, 4, 6, 10 and 24 hours, respectively, and placed in tubes containing 2 µL of EDTA-K2. The tubes were centrifuged at 4000 rpm for 15 minutes to separate the plasma, and stored at -60° C. Animals were allowed to eat 2 hours after administration.
LC-MS/MS method was used to determine the content of the test compounds in the plasma of rats after intravenous and intragastric administration. The linear range of the method was 2.00 - 6000 nmol/L; plasma samples were treated with acetonitrile to precipitate protein, and then analyzed.

Where [3] appears, read: po, intragastric administration (group 1), nominal 2 mg/kg (actual dose in c2).
[4] abbreviates: intravenous administration, nominal 1 mg/kg (actual dose in c2).
Where [5] appears, read: po, intragastric administration (group 2), nominal 30 mg/kg (actual dose in c2).

pIC50: −log10 of the molar value. Where two headings read alike, the source gives them in different places.

T1 sequence (P03952 20-638): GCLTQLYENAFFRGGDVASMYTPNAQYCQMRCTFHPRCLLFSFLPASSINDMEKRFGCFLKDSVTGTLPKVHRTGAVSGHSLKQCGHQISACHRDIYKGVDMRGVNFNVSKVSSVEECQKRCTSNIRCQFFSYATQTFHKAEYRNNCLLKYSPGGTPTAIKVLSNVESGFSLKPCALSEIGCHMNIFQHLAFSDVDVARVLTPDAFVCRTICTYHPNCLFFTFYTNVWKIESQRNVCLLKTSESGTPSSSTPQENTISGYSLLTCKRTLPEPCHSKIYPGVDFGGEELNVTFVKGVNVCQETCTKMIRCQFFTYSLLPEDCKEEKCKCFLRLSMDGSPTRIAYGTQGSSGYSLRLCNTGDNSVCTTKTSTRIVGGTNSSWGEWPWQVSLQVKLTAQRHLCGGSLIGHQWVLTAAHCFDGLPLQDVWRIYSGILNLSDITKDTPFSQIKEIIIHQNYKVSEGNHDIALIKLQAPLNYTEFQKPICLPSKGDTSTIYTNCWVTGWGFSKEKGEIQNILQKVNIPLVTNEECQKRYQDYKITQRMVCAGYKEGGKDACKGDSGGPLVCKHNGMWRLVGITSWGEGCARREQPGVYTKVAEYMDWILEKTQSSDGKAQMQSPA

For the compound `COc1ccc(F)c(CNC(=O)c2cn(Cc3ccc(Cn4cc(F)ccc4=O)cc3)nc2C2COC2)c1F` [Compound 1], the pIC50 – broadly, the negative decadic logarithm of the IC50, by convention in mol/L – in series [1] was 9.86. Besides, in series [2] (setting [3]), the bioavailability (usually the share of a dose that reaches the circulation, judged against a reference dose that is usually intravenous) was determined as 15.3%; the AUC(0-inf) worked out at 1.34 µM·h; the AUC(0-t) came out at 1.33 µM·h; the half-life (commonly the time needed for the level to fall by half in the phase considered) was 93.6 min. For the same compound, in series [2] (setting [3]), the time to peak (Tmax) (as a rule, the time from dosing to the highest level) was 30 min and the Cmax was 1140 nM. Also, in series [2] (setting [4]), the Vd stood at 0.202 L/kg; the clearance (as a rule, a measure of how efficiently the substance is removed, as volume per time) stood at 7.09 mL/min/kg; the AUC(0-inf) is 4.38 µM·h; the AUC(0-t) worked out at 4.35 µM·h. Also, in series [2] (setting [4]), the half-life is 37.4 min.

Turning to `COc1ccc(F)c(CNC(=O)c2cn(Cc3ccc(Cn4cc(F)ccc4=O)c(F)c3)nc2C2COC2)c1F` [Compound 8], the pIC50 in series [1] was 9.33. In addition, in series [2] (setting [3]), the bioavailability was 11.2%, the AUC(0-inf) is 0.591 µM·h, the AUC(0-t) was 0.584 µM·h and the half-life was 94.2 min. In series [2] (setting [3]), the time of peak concentration (Tmax) was found to be 15 min and the Cmax came to 680 nM. In addition, in series [2] (setting [5]), the bioavailability was 54%, the AUC(0-inf) turned out to be 42.5 µM·h, the AUC(0-t) amounted to 42.4 µM·h and the half-life was 115 min. Further, in series [2] (setting [5]), the Tmax came to 15 min and the Cmax was 18600 nM. In series [2] (setting [4]), the Vd turned out to be 0.188 L/kg, the clearance worked out at 12.2 mL/min/kg, the AUC(0-inf) was 2.62 µM·h and the AUC(0-t) was 2.62 µM·h. Besides, the half-life in series [2] (setting [4]) was 23.5 min.

(Values after US11814371B2, “Heterocyclic compound” (MEDSHINE DISCOVERY INC., priority 2020, dated 2023).)
